From patent US10994018B2, “Long-acting palmitic acid-conjugated GnRH derivative, and pharmaceutical composition containing same” (priority 2017, dated 2021)
Like-named read-outs stand apart in the source and are kept apart here. Each block holds one compound with its values, some of them ahead of it. Where a SMILES comes first, the peptide text is derived from it. [ ]: non-standard residue; d: D form. The star is where a group is joined. Palmitoyl = CCCCCCCCCCCCCCCC(=O)*

Columns and labels:
[1] = test system: prostate cancer cell line DU-145; experiment: Cell death assay (Cell Counting Kit-8) on prostate cancer cells; assay type: cell-based
Protocol: GnRH derivatives are clinically applied to the treatment of diseases including breast cancer, prostate cancer, endometriosis, central precocious puberty, and the like. The DU-145 cell line, which is a type of prostate cancer cells, was cultured in T75 flasks containing an adequate amount of RPIM 1640 culture medium (containing 10% FBS, penicillin/streptomycin, and 1% non-essential amino acids) in a sterile incubator having 5% CO2/95% air at 37° C. Cell death assay was performed using the Cell Counting Kit-8 (CCK-8, manufactured by DOJINDO). The […] cells were separated from the T75 flasks by trypsinization treatment and transferred to 96-well plates at a density of 1×10^4 cells/well, followed by incubation for one hour for attachment. Subsequently, the cells were treated with various concentrations of GnRH or GnRH derivatives, and control reagents. Specifically, 1% DMSO was used as a negative control for cell death while 0.1% SDS served as a positive control. After 48 hours of incubation, the existing culture medium was removed, and 100 μL of fresh culture medium and 10 μL of CCK-8 solution were applied to each well. Again, after 48 hours of incubation, the medium solution was replaced by 100 μL of fresh culture medium and 10 μL of CCK-8 solution. The cells were incubated for 4 hours, and then the absorbance was measured at 450 nm to assess cell viability.

[2] = Blood concentration and pharmacokinetics after single subcutaneous administration to rats (LC/MSMS); assay type: in vivo, female SD rats; conditions: rat
Protocol: Before administration and at 0.5, 1, 2, and 6 hours and on days 1, 3, 7, 10, 14, 21, and 28 after administration, blood samples were taken from the tail vein of the rats and measured for the blood concentrations of Leuprolide and GnRH derivatives, using LC/MSMS. If the concentration reached about 4 ng/mL at a specific time point, no measurements were further made for the next time point. The measurement results are graphically depicted in FIGS. 4 to 6. Based on the results, pharmacokinetic analysis was carried out by calculating the half-life (t1/2), clearance rate (CL), volume of distribution (Vd), time to reach the maximum concentration following drug administration (Tmax), maximum concentration following drug administration (Cmax), and systemic exposure to drug (AUCt). The analysis results are as follows.

[3] = cited from earlier work
[4] = emulsion; same dose (Peng et al., 2010); cited from earlier work
[5] = female, SD, in vivo, sc, 12.5 mg/kg
[6] = female, SD, in vivo, sc, 12.5 mg/kg, blood concentration, Mean

Compound: CCCCCCCCCCCCOS(=O)(=O)[O-].[Na+] [0.1% SDS, reference compound]
Viability relative to control (%) ([1]; DU-145 cells, positive control at 0.1%): 21.7%

level at 0.5 h ([2]; female, SD, blood, sc, 12.5 mg/kg, s.c. once 12.5 mg/kg, 0.5 hr., read-out: blood concentration, Mean): 11.8 ng/mL | level at 1 h ([2]; female, SD, blood, sc, 12.5 mg/kg, s.c. once 12.5 mg/kg, 1 hr., read-out: blood concentration, Mean): 16.9 ng/mL | level at 2 h ([2]; female, SD, blood, sc, 12.5 mg/kg, s.c. once 12.5 mg/kg, 2 hr., read-out: blood concentration, Mean): 29.1 ng/mL | level at 6 h ([2]; female, SD, blood, sc, 12.5 mg/kg, s.c. once 12.5 mg/kg, 6 hr., read-out: blood concentration, Mean): 52.2 ng/mL | level at 24 h ([2]; female, SD, blood, sc, 12.5 mg/kg, s.c. once 12.5 mg/kg, 1 day): 45 ng/mL | level at 168 h ([2]; female, SD, blood, sc, 12.5 mg/kg, s.c. once 12.5 mg/kg, 7 days): 11.9 ng/mL | level at 240 h ([2]; female, SD, blood, sc, 12.5 mg/kg, s.c. once 12.5 mg/kg, 10 days): 8.18 ng/mL | level at 336 h ([2]; female, SD, blood, sc, 12.5 mg/kg, s.c. once 12.5 mg/kg, 14 days): 4.35 ng/mL | CL (clearance rate) ([2]; s.c. once 12.5 mg/kg): 0.051 (mg/kg)/(ng/ml)/day | Vd (volume of distribution) ([2]; s.c. once 12.5 mg/kg): 0.351 (mg/kg)/(ng/ml)
Compound: CCCCCCCCCCCCCCCC(=O)N[C@@H](CCC(N)=O)C(=O)N[C@@H](Cc1c[nH]cn1)C(=O)N[C@@H](Cc1c[nH]c2ccccc12)C(=O)N[C@@H](CO)C(=O)N[C@@H](Cc1ccc(O)cc1)C(=O)N[C@H](CC(C)C)C(=O)N[C@@H](CC(C)C)C(=O)N[C@@H](CCCNC(=N)N)C(=O)N1CCC[C@H]1C(=O)NCC [Derivative P2, Palmitate-Gln-His-Trp-Ser-Tyr-DLeu-Leu-Arg-Pro-NHEt] (Palmitoyl-QHWSY[dL]LRP-NHEt)
fold greater cytotoxic effects compared to Leuprolide or GnRH [1]: 7- to 7.5 fold

Compound: CCCCCCCCCCCCCCCC(=O)N[C@@H](CCC(=O)O)C(=O)N[C@@H](Cc1c[nH]cn1)C(=O)N[C@@H](Cc1c[nH]c2ccccc12)C(=O)N[C@@H](CO)C(=O)N[C@@H](Cc1ccc(O)cc1)C(=O)N[C@H](CC(C)C)C(=O)N[C@@H](CC(C)C)C(=O)N[C@@H](CCCNC(=N)N)C(=O)N1CCC[C@H]1C(=O)NCC [Derivative P3, Palmitate-Glu-His-Trp-Ser-Tyr-DLeu-Leu-Arg-Pro-NHEt] (Palmitoyl-EHWSY[dL]LRP-NHEt)
fold greater cytotoxic effects compared to Leuprolide or GnRH [1]: 7- to 7.5 fold

level at 504 h ([2]; female, SD, blood, sc, 12.5 mg/kg, s.c. once 12.5 mg/kg, 21 days): 1.26 ng/mL | CL (clearance rate) ([2]; s.c. once 12.5 mg/kg): 0.075 (mg/kg)/(ng/ml)/day | Vd (volume of distribution) ([2]; s.c. once 12.5 mg/kg): 0.436 (mg/kg)/(ng/ml)
Compound: CCCCCCCCCCCCCCCC(=O)N[C@@H](CCC(N)=O)C(=O)N[C@@H](Cc1c[nH]cn1)C(=O)N[C@@H](Cc1c[nH]c2ccccc12)C(=O)N[C@@H](CO)C(=O)N[C@@H](Cc1ccc(O)cc1)C(=O)N[C@H](CC(C)C)C(=O)N[C@@H](CC(C)C)C(=O)N[C@@H](CCCNC(=N)N)C(=O)N1CCC[C@H]1C(=O)NCC [Derivative P4, Palmitate-Gln-His-Trp-Ser-Tyr-DLeu-Leu-Arg-Pro-NHEt] (Palmitoyl-QHWSY[dL]LRP-NHEt)

Compound: CC(C)C[C@H](NC(=O)CNC(=O)[C@H](Cc1ccc(O)cc1)NC(=O)[C@H](CO)NC(=O)[C@H](Cc1c[nH]c2ccccc12)NC(=O)[C@H](Cc1cnc[nH]1)NC(=O)[C@@H]1CCC(=O)N1)C(=O)N[C@@H](CCCNC(=N)N)C(=O)N1CCC[C@H]1C(=O)NCC(N)=O [GnRH]
in vivo half-life in circulating blood [3]: 2 to 4 min

AUC(0-t) [2, 5]: 1660 ng·h/mL | Cmax [2, 5]: 1020 ng/mL | Tmax [2, 5]: 28.8 min | half-life [2, 5]: 43.2 min | level at 0.5 h [2, 6]: 1020 ng/mL | level at 1 h [2, 6]: 769 ng/mL | level at 2 h [2, 6]: 228 ng/mL | level at 6 h [2, 6]: 2.88 ng/mL | CL (clearance rate) ([2]; in vivo, sc, 12.5 mg/kg): 0.180 (mg/kg)/(ng/ml)/day | Vd (volume of distribution) ([2]; in vivo, sc, 12.5 mg/kg): 0.007 (mg/kg)/(ng/ml)
Compound: CCNC(=O)[C@@H]1CCCN1C(=O)[C@H](CCCNC(=N)N)NC(=O)[C@H](CC(C)C)NC(=O)[C@@H](CC(C)C)NC(=O)[C@H](Cc1ccc(O)cc1)NC(=O)[C@H](CO)NC(=O)[C@H](Cc1c[nH]c2ccccc12)NC(=O)[C@H](Cc1c[nH]cn1)NC(=O)[C@@H]1CCC(=O)N1 [Leuprolide, pyroGlu-His-Trp-Ser-Tyr-DLeu-Leu-Arg-Pro-NHEt, reference compound]
cell death rate on prostate cancer cells ([1]; DU-145 cells): about 10%

Compound: dexamethasone palmitate
anti-inflammatory effect, fold higher than dexamethasone alone [4]: 5.6 fold
